Our source for the IC50 values is ChEMBL document CHEMBL1158317, “Porrigenins A and B, novel cytotoxic and antiproliferative sapogenins isolated from Allium porrum” (J Nat Prod, 1997).

Converted amounts (≈) assume the structure as drawn.

Format in all cases: functional, cell-based
The test system of experiment [1] is IGR-1. Description: Cytotoxicity against human IGR-1 cells after 24 hrs by MTT assay. To be noted: IGR-1, 24 h.
The test system of experiment [2] is IGR-1. The experiment is described as follows: Antiproliferative activity against human IGR-1 cells after 48 hrs by MTT assay. To be noted: IGR-1, 48 h. Background: Tetrazolium assays rely on reduction of a dye to a coloured formazan, in cell work by metabolically active cells.
Experiment [3] concerns IGR-1. Description: Antiproliferative activity against human IGR-1 cells after 72 hrs by MTT assay. The conditions noted are these: IGR-1, 72 h.
Experiment [4] relates to J774. The experiment is described as follows: Cytotoxicity against mouse J774 cells after 24 hrs by MTT assay. To be noted: J774, 24 h.
Experiment [5] concerns J774. The experiment is described as follows: Antiproliferative activity against mouse J774 cells after 48 hrs by MTT assay. The conditions noted are these: J774, 48 h.
Experiment [6] has as its system J774. The experiment is described as follows: Antiproliferative activity against mouse J774 cells after 72 hrs by MTT assay. To be noted: J774, 72 h.
The subject of experiment [7] is WEHI-164. The experiment is described as follows: Antiproliferative activity against mouse WEHI164 cells after 48 hrs by MTT assay. The conditions noted are these: WEHI-164, 48 h.
Experiment [8] concerns WEHI-164. The experiment is described as follows: Antiproliferative activity against mouse WEHI164 cells after 72 hrs by MTT assay. The conditions noted are these: WEHI-164, 72 h.
Experiment [9] deals with P388. The experiment is described as follows: Cytotoxicity against mouse P388 cells after 24 hrs by MTT assay. The conditions noted are these: P388, 24 h.
The subject of experiment [10] is P388. The experiment is described as follows: Antiproliferative activity against mouse P388 cells after 48 hrs by MTT assay. The conditions noted are these: P388, 48 h.
The subject of experiment [11] is P388. The experiment is described as follows: Antiproliferative activity against mouse P388 cells after 72 hrs by MTT assay. To be noted: P388, 72 h.
In experiment [12] the test system is WEHI-164. Description: Cytotoxicity against mouse WEHI164 cells after 24 hrs by MTT assay. The conditions noted are these: WEHI-164, 24 h.

What is called IC50 is the concentration needed to halve the response being measured. The low end stands for greater potency in that assay, the high end for weaker potency in that assay.

In the case of `C[C@@H]1CC[C@@]2(OC1)O[C@H]1C[C@H]3[C@@H]4C[C@@H](O)[C@H]5C[C@@H](O)[C@@H](O)C[C@]5(C)[C@H]4CC[C@]3(C)[C@H]1[C@@H]2C` [PORRIGENIN A], the concentration for half-maximal inhibition (IC50) in the experiment with IGR-1 [1] came out at 942 µg/mL (≈ 2100 µM); in the experiment on IGR-1 [2] it was 471 µg/mL (≈ 1050 µM); with IGR-1 [3], 184 µg/mL (≈ 410 µM); in the experiment with J774 [4], 754 µg/mL (≈ 1680 µM); in the experiment with J774 [5], 515 µg/mL (≈ 1150 µM); in the experiment with J774 [6], 270 µg/mL (≈ 602 µM). In addition, the IC50 worked out at 277 µg/mL (≈ 617 µM) with WEHI-164 [7]; 110 µg/mL (≈ 245 µM) in the experiment with WEHI-164 [8]; 617 µg/mL (≈ 1380 µM) in the experiment with P388 [9]; 270 µg/mL (≈ 602 µM) in the experiment on P388 [10]; 115 µg/mL (≈ 256 µM) in the experiment on P388 [11].

`C[C@@H]1CC[C@@]2(OC1)O[C@H]1C[C@H]3[C@@H]4C[C@@H](O)[C@H]5C[C@@H](O)C(=O)C[C@]5(C)[C@H]4CC[C@]3(C)[C@H]1[C@@H]2C` [PORRIGENIN B]: the 50% inhibitory concentration (IC50) in the experiment on IGR-1 [1] was determined as 823 µg/mL (≈ 1840 µM); in the experiment on IGR-1 [2] it was 330 µg/mL (≈ 739 µM); in the experiment on IGR-1 [3], 45 µg/mL (≈ 101 µM); in the experiment on J774 [4] it was 552 µg/mL (≈ 1240 µM); in the experiment on J774 [5], 111 µg/mL (≈ 249 µM); with J774 [6], 51 µg/mL (≈ 114 µM). The IC50 in the experiment with WEHI-164 [12] turned out to be 655 µg/mL (≈ 1470 µM); in the experiment on WEHI-164 [7], 344 µg/mL (≈ 770 µM); in the experiment on WEHI-164 [8], 92 µg/mL (≈ 206 µM); in the experiment with P388 [9] it was 837 µg/mL (≈ 1870 µM); in the experiment on P388 [10] it was 185 µg/mL (≈ 414 µM); in the experiment with P388 [11], 74 µg/mL (≈ 166 µM).

Regarding `Sc1ncnc2nc[nH]c12` [MERCAPTOPURINE ANHYDROUS], the 50% inhibitory concentration (IC50) was determined as 51.7 µg/mL (≈ 340 µM) in the experiment with IGR-1 [1]; 12.3 µg/mL (≈ 80.8 µM) in the experiment on IGR-1 [2]; 1.1 µg/mL (≈ 7.23 µM) in the experiment on IGR-1 [3]; 61 µg/mL (≈ 401 µM) with J774 [4]; 3.6 µg/mL (≈ 23.7 µM) with J774 [5]; 0.5 µg/mL (≈ 3.29 µM) in the experiment on J774 [6]. The half-inhibitory concentration (IC50) stood at 83 µg/mL (≈ 545 µM) in the experiment on WEHI-164 [12]; 42 µg/mL (≈ 276 µM) with WEHI-164 [7]; 2.7 µg/mL (≈ 17.7 µM) in the experiment with WEHI-164 [8]; 37 µg/mL (≈ 243 µM) with P388 [9]; 2.1 µg/mL (≈ 13.8 µM) with P388 [10]; 0.3 µg/mL (≈ 1.97 µM) with P388 [11].

Regarding `C[C@@H]1CC[C@@]2(OC1)O[C@H]1C[C@H]3[C@@H]4C[C@@H](O)[C@H]5C[C@@H](O)[C@H](O)C[C@]5(C)[C@H]4CC[C@]3(C)[C@H]1[C@@H]2C` [AGIGENIN], the IC50 in the experiment on IGR-1 [2] was found to be 627 µg/mL (≈ 1400 µM); in the experiment on IGR-1 [3] it was 264 µg/mL (≈ 588 µM); in the experiment on J774 [4] it was 896 µg/mL (≈ 2000 µM); in the experiment with J774 [5], 655 µg/mL (≈ 1460 µM); in the experiment with J774 [6] it was 321 µg/mL (≈ 715 µM); in the experiment on WEHI-164 [12] it was 836 µg/mL (≈ 1860 µM). Moreover, the 50% inhibitory concentration (IC50) in the experiment on WEHI-164 [7] was found to be 548 µg/mL (≈ 1220 µM); in the experiment with WEHI-164 [8], 210 µg/mL (≈ 468 µM); in the experiment on P388 [9], 609 µg/mL (≈ 1360 µM); in the experiment on P388 [10], 471 µg/mL (≈ 1050 µM); with P388 [11], 354 µg/mL (≈ 789 µM).
